In patent publication US12053477B2, “Methods for treating pulmonary fibrosis” (Reviva Pharmaceuticals, Inc., priority 2017, dated 2024):
pKi: −log10 of the molar value.

How the values were obtained:
Human recombinant D2S = Human recombinant D2S (Homo sapiens (Human), UniProt P14416); experiment: Dopamine D2S radioligand binding assay
Human recombinant 5-HT1A = Human recombinant 5-HT1A (Homo sapiens (Human), UniProt P08908); experiment: Serotonin 5HT1A radioligand binding assay
[1] = biological target: Human Cortex or Human recombinant 5-HT2A (Homo sapiens (Human), UniProt P28223); experiment: Serotonin 5HT2A radioligand binding assay
[2] = system: Bleomycin (BLM) induced pulmonary fibrosis; experiment: Bleomycin (BLM) induced pulmonary fibrosis rat model; assay type: in vivo, Sprague Dawley rats
Description: Study Animals: The investigation involved 34 male Sprague Dawley rats (weights: 275-300 g; ages: 8 weeks; Charles River Laboratories, Quebec, Canada) randomized for equal distribution according to their body weight into four groups.
Study Methods: On Day 0, animals in Group 1 (Sham; N=5) received one intratracheal administration of the vehicle, 0.250 mL of vehicle 0.9% saline solution (FIG. 1). Animals in Groups 2 to 4 (n=9, 10, 10, respectively) received a single intratracheal instillation of 0.250 mL (5 U/kg-3.33 mg/kg) of bleomycin sulfate (Cayman Chemicals, Ann Arbor, MI) solution. From Day 1 to 10, the vehicle was administered to Groups 1, 2, and 4. […] The vehicle administration was continued to Group 1 (Sham) and Group 2 (BLM) until Day 20. […] During the treatment period, food and water were provided ad libitum to the rats. On each day, animals were monitored for behavior, general health status, and survival. Body weight and food intake were also measured.
For bleomycin, 50 mg of drug was weighed and dissolved in 12.5 mL of sterile 0.9% Saline solution was added to obtain a solution of 4 mg/mL. The vehicle was created by dissolving 50 g of glucose in 1 L of water to result in a 5% solution.
On Day 21, animals were anesthetized and instrumented. Hemodynamic parameters (systemic arterial blood pressure, heart rate, and oxygen saturation) were recorded continuously for at least 5 minutes. At the end of the recording, a blood sample was collected. After the animal was exsanguinated, the pulmonary circulation was flushed with 0.9% NaCl, and tissues (lungs, trachea, and heart) were harvested altogether from the thoracic cavity for further analysis.
Parameters Measured on Surgery Day: Cardiac activity was recorded continuously during the surgical procedure. Cardiac activity was monitored using three electrocardiographic (ECG) contact electrodes placed in a lead-I/II configuration and connected to an IsoDam8 differential amplifier. Heart rate (HR) was recorded using duplicate systems: from the ECG records (RR-intervals) and using an N-595 pulse oximeter attached to the left front paw of the animal. The heart rate values derived from the pulse oximeter were measured in beat per minutes (bpm) using cursor readings in Clampfit 10.2.0.14CA. Blood oxygen saturation (SpO2) was measured using a pulse oximeter signal attached to the left front paw of the animal.
Systemic arterial blood pressure (SAP) was monitored continuously using an intra-arterial fluid-filled catheter connected to a pressure transducer, with diastolic and systolic pressures values measured in mm Hg. Calculation of mean SAP (mSAP) and pulse pressure (PP) used the following formulas: 1−mSAP=diastolic systemic pressure+([systolic systemic pressure−diastolic systemic pressure]/3); and 2−PP=systolic systemic pressure−diastolic systemic pressure. Pulse pressure was calculated as the difference between systolic and diastolic readings.
After being harvested, the trachea was connected to the cannula of a perfusion system. The left lung was clamped while 5 mL of cold PBS solution was injected in the trachea to perform bronchoalveolar lavage to obtain fluid (BALF) of the right lobe of the lungs and was collected for further analysis (Total cell counts and cytokines measurement). Once the BALF sample was collected, it was centrifuged at 1200 rpm for 10 minutes at 4° C. The supernatant was frozen at −80° C. until cytokines analysis. The cells were then resuspended in PBS and counted with a hemocytometer.
Organ weights were expressed as relative percentages and were calculated as follows: Relative organ weight=(organ weight×100)/body weight.
Histological Preparation and Categorization: For each rat, the left lobe of the lungs was harvested, perfused and fixed with 10% neutral buffered formalin. A transversal section of the middle left lobe was cut and forwarded in 10% NBF to the Institute for Research in Immunology and Cancer (Montreal, Quebec, Canada). […]

[3] = RPI: Day 10 to 20, Day 21, vs BLM, P<0.01
[4] = RPI: Day 10 to 20, Day 21, vs BLM, P<0.05
[5] = RPT: Day 1 to 20, Day 21, vs BLM, P<0.001
[6] = RPT: Day 1 to 20, Day 21, vs BLM, P<0.01
[7] = RPT: Day 1 to 20, Day 21, vs BLM, P<0.05
[8] = all groups (RPT and RPI), Day 21

Human recombinant D2S, sequence (P14416 other isoform, or with tags, fused parts or gaps): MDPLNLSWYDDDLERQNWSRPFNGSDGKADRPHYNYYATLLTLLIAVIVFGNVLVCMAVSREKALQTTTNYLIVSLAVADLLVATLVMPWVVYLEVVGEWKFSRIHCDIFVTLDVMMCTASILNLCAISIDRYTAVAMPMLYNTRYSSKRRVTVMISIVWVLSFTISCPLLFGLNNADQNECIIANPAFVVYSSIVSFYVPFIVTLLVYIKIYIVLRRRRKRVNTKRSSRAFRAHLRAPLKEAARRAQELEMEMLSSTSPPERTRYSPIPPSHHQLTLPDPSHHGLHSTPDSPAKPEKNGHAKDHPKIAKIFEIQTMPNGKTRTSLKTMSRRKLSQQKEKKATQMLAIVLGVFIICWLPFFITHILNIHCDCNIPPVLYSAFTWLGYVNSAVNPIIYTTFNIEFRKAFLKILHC
Human Cortex or Human recombinant 5-HT2A, sequence (P28223 whole entry, looked up): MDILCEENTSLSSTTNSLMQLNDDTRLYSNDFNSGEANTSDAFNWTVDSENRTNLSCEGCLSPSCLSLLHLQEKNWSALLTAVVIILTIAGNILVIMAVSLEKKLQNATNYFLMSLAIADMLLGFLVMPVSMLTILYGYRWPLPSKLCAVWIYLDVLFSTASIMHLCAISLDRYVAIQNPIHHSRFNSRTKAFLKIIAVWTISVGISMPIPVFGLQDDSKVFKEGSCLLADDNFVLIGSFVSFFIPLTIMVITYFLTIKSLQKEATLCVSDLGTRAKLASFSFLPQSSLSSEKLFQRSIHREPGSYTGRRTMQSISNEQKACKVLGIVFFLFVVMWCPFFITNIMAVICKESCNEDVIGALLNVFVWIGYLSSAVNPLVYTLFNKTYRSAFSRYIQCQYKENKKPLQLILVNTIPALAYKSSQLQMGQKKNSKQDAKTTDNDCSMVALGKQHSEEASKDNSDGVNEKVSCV

6-(4-(4-(2-methoxyphenyl)piperazin-1-yl)butoxy)-2H-benzo[b][1,4]oxazin-3(-4H)-one [Compound B]
pKi (Human recombinant D2S): 9.52
pKi (Human recombinant 5-HT1A): 9.19
pKi [1]: 6.93

O=C1COc2ccc(OCCCCN3CCN(c4cccc(Cl)c4Cl)CC3)cc2N1 [Compound A, 6-(4-(4-(2,3-dichlorophenyl)piperazin-1-yl)butoxy)-2H-benzo[b][1,4]oxazin-3(4H)-one]
survival rate at Day 10 ([2]; Group 3, 15 mg/kg b.i.d. gavage from Day 1 (text calls it RPI; Group 3 = RPT)): 100%
survival rate at Day 21 ([2]; RPI: 15 mg/kg b.i.d. gavage Day 10 to 20): 89.5%
BALF IL6 ([2]; RPI: Day 10 to 20, Day 21): numerically (RPT, RPI) reduced
BALF MIP1 ([2]; RPI: Day 10 to 20, Day 21): None of the treatments statistically reversed
BALF total protein ([2]; RPI: Day 10 to 20, Day 21): numerical improvement reduction
arterial pulse pressure ([2]; RPI: Day 10 to 20, Day 21): slightly restored
blood oxygen saturation ([2]; RPI: Day 10 to 20, Day 21): improved
cardiac output ([2]; RPI: Day 10 to 20, Day 21): slightly restored
lung weight ([2]; RPI: Day 10 to 20, Day 21): decreased
BALF IP10 [2, 3]: significant reductions
BALF RANTES [2, 3]: significantly reduced
lung hydroxyproline concentration [2, 3]: significant diminution
BALF MCP1 [2, 4]: significant decrease
BALF total cell count [2, 4]: significantly reduced
blood lactate levels [2, 4]: diminution
respiratory resistance ([2]; RPI: Day 10 to 20, Day 21, vs BLM, P=0.10): showed improvement
survival rate at Day 21 ([2]; RPT: 15 mg/kg b.i.d. gavage Day 1 to 20): 90%
BALF IL6 ([2]; RPT: Day 1 to 20, Day 21): numerically (RPT, RPI) reduced
BALF MCP1 ([2]; RPT: Day 1 to 20, Day 21): reductions
BALF MIP1 ([2]; RPT: Day 1 to 20, Day 21): slightly reduced
Ashcroft Score (H&E staining), lung parenchymal fibrotic changes [2, 5]: significant reduction
percentage of collagen disposition in the lung (Masson's trichrome staining) [2, 5]: significantly reduced
BALF IP10 [2, 6]: significant reductions
BALF RANTES [2, 6]: significantly reduced
blood lactate levels [2, 6]: diminution
body weight [2, 6]: significantly alleviated BLM-induced weight loss
cardiac output [2, 6]: restored cardiac output
BALF total cell count [2, 7]: reversal
BALF total protein [2, 7]: reversal
arterial pulse pressure [2, 7]: improved arterial pulse pressure
blood oxygen saturation [2, 7]: normalization
lung hydroxyproline concentration [2, 7]: significant diminution
lung weight [2, 7]: significantly lower
respiratory resistance [2, 7]: significant reduction
body weight ([2]; administered from Day 10 (RPI; printed RPT), Day 21, vs BLM): slightly increased body weight
heart rate [2, 8]: relatively similar in all groups
systemic arterial pressure [2, 8]: no differences were noted among the groups
